Results on 1 molecule are retold here after patent US20180028667A1, “AQUEOUS LIQUID AGENT” (SENJU PHARMACEUTICAL CO., LTD., priority 2014, published 2018).

The nature of the data set: Measurement of solubility of compound A in various solvents (oil components). Particulars: 25° C., stirred 24 hr. Format: physicochemical. As to the method: An excess amount (about 0.2 g) of compound A was added to various solvents (10 g) described in Table 7, and the mixture was stirred at 25° C. for 24 hr. Thereafter, the solvent was filtered off through a 0.45 μm non-aqueous filter while maintaining the temperature. The content of compound A contained in the filtrate was measured in the same manner as in Experimental Example 1, and the solubility of compound A in various solvents was calculated.

On to `Cc1cc(C(=O)Nc2cc(Oc3ccc4nc(NC(=O)C5CC5)cn4n3)ccc2C)n(C)n1` [compound A, N-[5-({2-[(cyclopropylcarbonyl)amino]imidazo[1,2-b]pyridazin-6-yl}oxy)-2-methylphenyl]-1,3-dimethyl-1H-pyrazole-5-carboxamide], for which the solubility by setting is: (solvent castor oil) 0.311%; (solvent corn oil) 0.008%; (solvent cottonseed oil) 0.008%; (solvent olive oil) 0.009%; (solvent rape seed oil) 0.007%; (solvent soybean oil) 0.007%.
